pEC50: −log10 of the molar value.

This assay has as its system HCV (Ib) RNA replication. The assay can be described thus: Cell-based luciferase reporter HCV (1b) RNA replication assay (replicon cell lines Huh-7 5.2 and ET). Further details: species or system Hepatitis C virus. Conditions: Hepatitis C virus, Huh-7, 96 h, HCV 1b genotype replicon, luciferase readout, 4 days incubation; read-out: EC50_1b. In outline:
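Compounds were tested at eleven concentrations in duplicate over 4 days at 37 °C, 5% CO2. The cells were luciferase-reporter HCV 1b replicon lines 5.2 (NS5A adaptive mutation) or ET (NS4B mutation). Luminescence of lysates was measured, and IC50s were derived by nonlinear curve fitting.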
(In a reporter assay the amount or activity of a reporter protein is the signal.)

Turning to `COC(=O)N(C)[C@H](C(=O)N1C[C@@H](C)C[C@H]1c1nc2cc(-c3csc4c(-c5ccc6[nH]c([C@@H]7C[C@H](C)CN7C(=O)[C@H](C(C)C)N(C)C(=O)OC)nc6c5)csc34)ccc2[nH]1)C(C)C` [Compound 290], the pEC50 is at least 8.30.

Regarding `C[C@H]1C[C@@H](c2nc3ccc(-c4ccc(-c5ccc6nc([C@@H]7C[C@H](C)CN7C(=O)OC(C)(C)C)n(C)c6c5)cc4)cc3n2C)N(C(=O)OC(C)(C)C)C1` [Compound 291], the pEC50 is 5.30 to 8.30.

Consider `C[C@H]1C[C@@H](c2nc3ccc(-c4ccc(-c5ccc6nc([C@@H]7C[C@H](C)CN7C(=O)OC(C)(C)C)n(C)c6c5)cc4)cc3[nH]2)N(C(=O)OC(C)(C)C)C1` [Compound 292], for which the pEC50 was 5.30 to 8.30.

On to `COC(=O)N[C@H](C(=O)N1C[C@@H](C)C[C@H]1c1nc2ccc(-c3ccc(-c4ccc5nc([C@@H]6C[C@H](C)CN6C(=O)[C@@H](NC(=O)OC)C(C)C)n(C)c5c4)cc3)cc2n1C)C(C)C` [Compound 293], for which the pEC50 was at least 8.30.

Regarding `COC(=O)N[C@H](C(=O)N1C[C@@H](C)C[C@H]1c1nc2ccc(-c3ccc(-c4ccc5nc([C@@H]6C[C@H](C)CN6C(=O)[C@@H](NC(=O)OC)C(C)C)n(C)c5c4)cc3)cc2[nH]1)C(C)C` [Compound 294], the pEC50 is at least 8.30.

For the molecule `COC(=O)N(C)[C@H](C(=O)N1C[C@@H](C)C[C@H]1c1nc2ccc(-c3ccc(-c4ccc5nc([C@@H]6C[C@H](C)CN6C(=O)[C@H](C(C)C)N(C)C(=O)OC)n(C)c5c4)cc3)cc2n1C)C(C)C` [Compound 295], the pEC50 was at least 8.30.

As for `COC(=O)N(C)[C@H](C(=O)N1C[C@@H](C)C[C@H]1c1nc2ccc(-c3ccc(-c4ccc5nc([C@@H]6C[C@H](C)CN6C(=O)[C@H](C(C)C)N(C)C(=O)OC)n(C)c5c4)cc3)cc2[nH]1)C(C)C` [Compound 296], the pEC50 is at least 8.30.

Turning to `CCN(C(=O)OC)[C@H](C(=O)N1C[C@@H](C)C[C@H]1c1nc2ccc(-c3ccc(-c4ccc5[nH]c([C@@H]6C[C@H](C)CN6C(=O)[C@@H](NC(=O)OC)C(C)C)nc5c4)cc3)cc2[nH]1)C(C)C` [Compound 297], the pEC50 is at least 8.30.

For `COC(=O)N[C@H](C(=O)N1CC(C)(C)C[C@H]1c1nc2cc(-c3ccc(-c4ccc5[nH]c([C@@H]6CC(C)(C)CN6C(=O)[C@@H](NC(=O)OC)C(C)C)nc5c4)cc3)ccc2[nH]1)C(C)C` [Compound 298], the pEC50 is at least 8.30.

As to `COC(=O)N(C)[C@H](C(=O)N1C[C@@H](C)C[C@H]1c1nc2cc(-c3ccc(-c4ccc5[nH]c([C@@H]6C[C@H](C)CN6C(=O)[C@H](C(C)C)N(C)C(=O)OC)nc5c4)c4nsnc34)ccc2[nH]1)C(C)C` [Compound 299], the pEC50 was at least 8.30.

`COC(=O)N[C@H](C(=O)N1C(C)CC[C@H]1c1nc2cc(-c3ccc(-c4ccc5[nH]c([C@@H]6CCC(C)N6C(=O)[C@@H](NC(=O)OC)C(C)C)nc5c4)c(C)c3)ccc2[nH]1)C(C)C` (stereo partly shown) [Compound 300]: the pEC50 was at least 8.30.

As for `COC(=O)N[C@H](C(=O)N1C(C)CC[C@H]1c1nc2cc(-c3ccc(-c4ccc5[nH]c([C@@H]6CCC(C)N6C(=O)[C@H](C(C)C)N(C)C(=O)OC)nc5c4)cc3)ccc2[nH]1)C(C)C` (stereo partly shown) [Compound 301], the pEC50 was at least 8.30.

Turning to `CC[C@H]1C[C@@H](c2nc3cc(-c4ccc(-c5ccc6[nH]c([C@@H]7C[C@H](CC)CN7C(=O)[C@@H](NC(C)OC)C(C)C)nc6c5)cc4)ccc3[nH]2)N(C(=O)[C@@H](NC(=O)OC)C(C)C)C1` (stereo partly shown) [Compound 302], the pEC50 is at least 8.30.

On to `COC(=O)N[C@H](C(=O)N1C[C@@H](C)C[C@H]1c1nc2cc(-c3ccc(-c4ccc5[nH]c([C@@H]6C[C@H](C)CN6C(=O)[C@@H](NC(=O)OC)C(C)C)nc5c4)c4nsnc34)ccc2[nH]1)C(C)C` [Compound 304], for which the pEC50 is at least 8.30.

Turning to `COC(=O)N[C@H](C(=O)N1C[C@@H](C)C[C@H]1c1nc2cc(-c3ccc(-c4ccc5[nH]c([C@@H]6C[C@H](C)CN6C(=O)[C@H](C(C)C)N6CCOC6=O)nc5c4)cc3)ccc2[nH]1)C(C)C` [Compound 305], the pEC50 is at least 8.30.

In the case of `CC(C)[C@@H](C(=O)N1C[C@@H](C)C[C@H]1c1nc2cc(-c3ccc(-c4ccc5[nH]c([C@@H]6C[C@H](C)CN6C(=O)[C@H](C(C)C)N6CCOC6=O)nc5c4)cc3)ccc2[nH]1)N1CCOC1=O` [Compound 306], the pEC50 is at least 8.30.

Take `COC(=O)N[C@H](C(=O)N1C[C@@H](C)C[C@H]1c1nc2cc(-c3cnc(-c4ccc5[nH]c([C@@H]6C[C@H](C)CN6C(=O)[C@@H](NC(=O)OC)C(C)C)nc5c4)cn3)ccc2[nH]1)C(C)C` [Compound 307]: the pEC50 was at least 8.30.

As to `COC(=O)N[C@H](C(=O)N1[C@H](C)CC[C@H]1c1nc2cc(-c3ccc(-c4ccc5[nH]c([C@@H]6CC[C@@H](C)N6C(=O)[C@@H](NC(=O)OC)C(C)C)nc5c4)cc3)ccc2[nH]1)C(C)C` [Compound 310], the pEC50 was at least 8.30.

Turning to `COC(=O)N[C@H](C(=O)N1[C@H](c2nc3cc(-c4ccc(-c5ccc6nc([C@@H]7CCC(C)(C)N7C(=O)[C@@H](NC(=O)OC)C(C)C)[nH]c6c5)cc4)ccc3[nH]2)CCC1(C)C)C(C)C` [Compound 311], the pEC50 was at least 8.30.

With `COC(=O)N[C@H](C(=O)N1[C@H](C)CC[C@H]1c1nc2cc(-c3ccc(-c4ccc5[nH]c([C@@H]6CC[C@H](C)N6C(=O)[C@@H](NC(=O)OC)C(C)C)nc5c4)cc3)ccc2[nH]1)C(C)C` [Compound 313], the pEC50 is at least 8.30.

Regarding `COC(=O)N[C@H](C(=O)N1[C@@H](C)CC[C@H]1c1nc2cc(-c3cc(F)c(-c4ccc5[nH]c([C@@H]6CC[C@H](C)N6C(=O)[C@@H](NC(=O)OC)C(C)C)nc5c4)cc3F)ccc2[nH]1)C(C)C` [Compound 314], the pEC50 is at least 8.30.

As to `COC(=O)N[C@H](C(=O)N1C[C@@H](C(F)F)C[C@H]1c1nc2cc(-c3ccc(-c4ccc5[nH]c([C@@H]6C[C@H](C(F)F)CN6C(=O)[C@@H](NC(=O)OC)C(C)C)nc5c4)cc3)ccc2[nH]1)C(C)C` [Compound 315], the pEC50 was at least 8.30.

On to `COC(=O)N[C@H](C(=O)N1C[C@@H](C(F)(F)F)C[C@H]1c1nc2cc(-c3ccc(-c4ccc5[nH]c([C@@H]6C[C@H](C(F)(F)F)CN6C(=O)[C@@H](NC(=O)OC)C(C)C)nc5c4)cc3)ccc2[nH]1)C(C)C` [Compound 316], for which the pEC50 was at least 8.30.

`COC(=O)N[C@H](C(=O)N1[C@@H](C)CC[C@H]1c1nc2ccc(-c3ccc(-c4ccc5nc([C@@H]6CC[C@H](C)N6C(=O)[C@@H](NC(=O)OC)C(C)C)[nH]c5c4)c4nsnc34)cc2[nH]1)C(C)C` [Compound 317]: the pEC50 was at least 8.30.

For `COC(=O)N[C@H](C(=O)N1[C@@H](C)CC[C@H]1c1nc2cc(-c3ccc(-c4ccc5[nH]c([C@@H]6CC[C@H](C)N6C(=O)[C@@H](NC(=O)OC)C(C)C)nc5c4)c4c3OCO4)ccc2[nH]1)C(C)C` [Compound 318], the pEC50 was at least 8.30.

As to `COC(=O)N[C@H](C(=O)N1[C@@H](C)CC[C@H]1c1nc2cc(-c3csc4c(-c5ccc6[nH]c([C@@H]7CC[C@H](C)N7C(=O)[C@@H](NC(=O)OC)C(C)C)nc6c5)csc34)ccc2[nH]1)C(C)C` [Compound 319], the pEC50 is at least 8.30.

Take `COC(=O)N[C@H](C(=O)N1C[C@@H](C)C[C@H]1c1nc2cc(-c3ccc(-c4ccc5[nH]c([C@@H]6CC[C@H](C)N6C(=O)[C@@H](NC(=O)OC)C(C)C)nc5c4)cc3)ccc2[nH]1)C(C)C` [Compound 320]: the pEC50 was at least 8.30.

As for `COC(=O)N[C@H](C(=O)N1[C@@H](C)CC[C@H]1c1nc2cc(-c3cc4sc(-c5ccc6[nH]c([C@@H]7CC[C@H](C)N7C(=O)[C@@H](NC(=O)OC)C(C)C)nc6c5)cc4s3)ccc2[nH]1)C(C)C` [Compound 321], the pEC50 is at least 8.30.

With `COC(=O)N[C@H](C(=O)N1[C@@H](C)CC[C@H]1c1nc2ccc(-c3ccc(-c4ccc5nc([C@@H]6CC[C@H](C)N6C(=O)[C@@H](NC(=O)OC)C(C)C)[nH]c5c4)c(F)c3)cc2[nH]1)C(C)C` [Compound 322], the pEC50 was at least 8.30.

As for `COC(=O)N[C@H](C(=O)N1C[C@@H](C)C[C@H]1c1nc2cc(-c3cc4sc(-c5ccc6nc([C@@H]7C[C@H](C)CN7C(=O)[C@@H](NC(=O)OC)C(C)C)n(C)c6c5)cc4s3)ccc2[nH]1)C(C)C` [Compound 323], the pEC50 was at least 8.30.

Take `COC(=O)N[C@H](C(=O)N1[C@@H](C)CC[C@H]1c1nc2cc(C#CC#Cc3ccc4[nH]c([C@@H]5CC[C@H](C)N5C(=O)[C@@H](NC(=O)OC)C(C)C)nc4c3)ccc2[nH]1)C(C)C` [Compound 324]: the pEC50 was at least 8.30.

Turning to `COC(=O)N[C@H](C(=O)N1CC(C)(C)C[C@H]1c1nc2cc(-c3cc4sc(-c5ccc6[nH]c([C@@H]7CC(C)(C)CN7C(=O)[C@@H](NC(=O)OC)C(C)C)nc6c5)cc4s3)ccc2[nH]1)C(C)C` [Compound 325], the pEC50 is at least 8.30.

For `COC(=O)N[C@H](C(=O)N1CCC[C@H]1c1nc2cc(N3CCN(c4ccc5nc([C@@H]6CCCN6C(=O)[C@@H](NC(=O)OC)C(C)C)[nH]c5c4)[C@H](C)C3)ccc2[nH]1)C(C)C` [Compound 326], the pEC50 is at least 8.30.

`COC(=O)N[C@H](C(=O)N1C[C@@H](C)C[C@H]1c1nc2cc(-c3ccc(-c4ccc5[nH]c([C@@H]6CC(C)(C)CN6C(=O)[C@@H](NC(=O)OC)C(C)C)nc5c4)cc3)ccc2[nH]1)C(C)C` [Compound 327]: the pEC50 was at least 8.30.

As to `COC(=O)N[C@H](C(=O)N1CCC[C@H]1c1nc2cc(N3CCCN(c4ccc5nc([C@@H]6CCCN6C(=O)[C@@H](NC(=O)OC)C(C)C)[nH]c5c4)CC3)ccc2[nH]1)C(C)C` [Compound 328], the pEC50 is at least 8.30.

Consider `COC(=O)N[C@H](C(=O)N1CCC[C@H]1c1nc2cc(N3CCN(c4ccc5[nH]c([C@@H]6CCCN6C(=O)[C@@H](NC(=O)OC)C(C)C)nc5c4)[C@@H](C)C3)ccc2[nH]1)C(C)C` [Compound 329], for which the pEC50 was at least 8.30.

As to `COC(=O)N[C@H](C(=O)N1C[C@@H](C)C[C@H]1c1nc2cc(-c3ccc4cc(-c5ccc6[nH]c([C@@H]7C[C@H](C)CN7C(=O)[C@@H](NC(=O)OC)C(C)C)nc6c5)ccc4c3)ccc2[nH]1)C(C)C` [Compound 330], the pEC50 is at least 8.30.
